Drawing on article PMC7462607 (eLife, 2020), this text covers IC50 for one compound.

The subject of this assay is A549 cells stably expressing 3xFLAG-CDK12 WT/G731E/G731R. Description: Cell viability assay, A549 cells stably expressing wild-type or G731E/R mutant CDK12. The assay is classed as cell-based. The following applies: Homo sapiens. On the procedure: Seven hundred A549 cells or 1,000 HCT-116 cells in 50 µL of medium were plated per well in 384-well flat clear bottom white polystyrene TC-treated microplates (Corning, Corning, USA). After overnight attachment, cells were dosed with a serial dilution of HQ461 with a D300e digital dispenser (Tecan, Männedorf, Switzerland). Cell survival was measured 72 hr later using CellTiter-Glo luminescent cell viability assay kit (Promega, Madison, USA) following vendor instructions. Luminescence was recorded by EnVison multimode plate reader (PerkinElmer, Waltham, USA). IC50 was determined with GraphPad Prism using baseline correction (by normalizing to DMSO control), the asymmetric (five parameter) equation, and least squares fit.
An ORF encoding CDK12 isoform 2 (NM_015083.3) was PCR amplified from A549 cDNA and cloned into a pCDNA3.1-N-3xFLAG vector which was derived from the pCDNA3.1 vector. G731E and G731R mutations in CDK12 were introduced by overlap extension PCR. After sequencing verification, wild-type and mutant 3xFLAG-CDK12 sequences were subcloned into lentiCas9-Blast (Addgene 52962) by replacing the Cas9 ORF with 3xFLAG-CDK12. The resulting lenti-EF1α−3xFLAG-CDK12-P2A-BSD WT/GE/GR constructs were packaged into lentiviral vectors to transduce A549 cells. Stable cell lines were obtained by selection with 20 µg/ml of blasticidin.

Where two headings read alike, the source gives them in different places.

With `Cc1cccc(Nc2nc(CC(=O)Nc3ncc(C)s3)cs2)n1` [HQ461, 2-(2-((6-methylpyridin-2-yl)amino)thiazol-4-yl)-N-(5-methylthiazol-2-yl)acetamide], the half-maximal inhibitory concentration (IC50) (CDK12 G731E, read-out: IC50 on the viability of A549 cells stably expressing G731E mutant CDK12) was found to be 16.9 µM; the IC50 (CDK12 G731R, read-out: IC50 on the viability of A549 cells stably expressing G731R mutant CDK12) was found to be 22.9 µM; the 50% inhibitory concentration (IC50) (read-out: IC50 on the viability of A549 cells stably expressing wild-type CDK12) came to 1.3 µM.

Broadly, the IC50 is the concentration needed to halve the response being measured.
